In brackets after ≈: the same amount, converted by molar mass.
Tests used:
[1] = test system: poliovirus, type 2, MEF strain; assay: animal or person; assay type: in vivo, white Swiss mice; details: Enterovirus C, in Mus musculus, po, 336 h, read-out: Survivors Day 14 Post Infection
Polio 2 = assay: microbe, parasite or virus in culture; assay type: cell-based, poliovirus; details: Enterovirus C, HeLa, read-out: Polio 2 MIC
[2] = test system: human rhinovirus (HRV) serotypes; assay: microbe, parasite or virus in culture; assay type: cell-based; details: for MIC50: read-out: Rhinovirus MIC50; for IC (MIC80 of serotype panel): read-out: Rhinovirus MIC80

Row | Structure (SMILES) | responders at 100 mg/kg [1] | responders at 200 mg/kg [1] | responders at 400 mg/kg [1] | MIC (Polio 2) | MIC50 [2] | IC (MIC80 of serotype panel) [2] | responders at 50 mg/kg [1] | responders at 25 mg/kg [1]
1 | Cc1cc(CCCCCCCOc2ccc(C3=NC(C)CO3)cc2)on1 (racemic) [Example 3, 5-{7-[4-(4,5-Dihydro-4-methyl-2-oxyazolyl)phenoxy]heptyl}-3-methylisoxazole] | 45% | 60% | 70% | 1.2 µg/mL (≈ 3.37 µM) | 0.07 µg/mL (≈ 0.196 µM) | 1.6 µg/mL | – | –
2 | Cc1cc(CCCCCCCc2ccc(C3=NCCO3)cc2)on1 [6(g), 5-{7-[4-(4,5-Dihydro-2-oxazolyl)phenyl]heptyl}-3-methylisoxazole] | 85% | 95% | – | 0.09 µg/mL (≈ 0.276 µM) | – | – | 25% | –
3 | Cc1cc(CCCCCOc2ccc(C3=NCCO3)cc2)no1 [7(k), 3-{5-[4-(4,5-Dihydro-2-oxazolyl)phenoxy]pentyl}-5-methylisoxazole] | 80% | – | – | 0.0012 µg/mL (≈ 0.00382 µM) | 1.3 µg/mL (≈ 4.14 µM) | 74.6 µg/mL | – | –
4 | Cc1cc(CCCCCCCOc2ccc(C3=NCCO3)cc2Cl)on1 [13(c), 5-{7-[2-Chloro-4-(4,5-dihydro-2-oxazolyl)phenoxy]heptyl}-3-methylisoxazole] | 80% | – | – | 0.17 µg/mL (≈ 0.451 µM) | 0.34 µg/mL (≈ 0.902 µM) | 1.06 µg/mL | 61.1% | 20%
5 | Cc1cc(CCCCCOc2ccc(C3=NCCO3)cc2Cl)on1 [15(b), 5-{5-[2-Chloro-4-(4,5-dihydro-2-oxazolyl)phenoxy]pentyl}-3-methylisoxazole] | 60% | – | – | 0.12 µg/mL (≈ 0.344 µM) | 0.08 µg/mL (≈ 0.229 µM) | 0.35 µg/mL | 40% | –
6 | Cc1cc(CCCCCOc2ccc(C3=NCCO3)cc2C(=O)O)on1 [Example 86, 5-{5-[2-Carboxy-4-(4,5-dihydro-2-oxazolyl)phenoxy]pentyl}-3-methylisoxazole] | – | – | – | 2.6 µg/mL (≈ 7.25 µM) | 99 µg/mL (≈ 276 µM) | 99 µg/mL | – | –
7 | Cc1cc(CCCCCOc2ccc(-c3ncco3)cc2)on1 [Example 88, 3-Methyl-5-{5-[4-(2-oxazolyl)phenoxy]pentyl}isoxazole] | – | – | – | 0.025 µg/mL (≈ 0.08 µM) | 0.38 µg/mL (≈ 1.22 µM) | 25.2 µg/mL | – | –
8 | Cc1cc(CCCCCOc2ccc(-c3nc(C)c(C)o3)cc2C)on1 [Example 90, 5-{5-[4-(4,5-Dimethyl-2-oxazolyl)-2-methylphenoxy]pentyl}-3-methylisoxazole] | – | – | – | 1.5 µg/mL (≈ 4.23 µM) | 0.2 µg/mL (≈ 0.564 µM) | 0.49 µg/mL | – | –
9 | Cc1cc(CCCCCOc2ccc(-c3ncco3)cc2Br)on1 [Example 92, 5-{5-[2-Bromo-4-(2-oxazolyl)phenoxy]pentyl}-3-methylisoxazole] | – | – | – | 0.07 µg/mL (≈ 0.179 µM) | 0.07 µg/mL (≈ 0.179 µM) | 0.61 µg/mL | – | –
10 | Cc1cc(CCCCCOc2ccc(C3=NCCCO3)cc2)on1 [Example 95, 5,6-Dihydro-2-{4-[5-(3-methyl-5-isoxazolyl)pentyloxy]phenyl}-4H-1,3-oxazine] | – | – | – | 0.15 µg/mL (≈ 0.457 µM) | 1.65 µg/mL (≈ 5.02 µM) | 26.3 µg/mL | – | –
11 | Cc1cc(CCCCCOc2ccc(-c3cnco3)cc2)on1 [Example 96(b), 3-Methyl-5-{5[4-(5-oxazolyl)phenoxy]pentyl}isoxazole] | – | – | – | 0.095 µg/mL (≈ 0.304 µM) | 1.4 µg/mL (≈ 4.48 µM) | 2.5 µg/mL | – | –
12 | Cc1cc(CCCCCOc2c(Cl)cc(-c3cnco3)cc2Cl)on1 [Example 98, 5-{5-[2,6-Dichloro-4-(5-oxazolyl)phenoxy]pentyl}-3-methylisoxazole] | – | – | – | 12.5 µg/mL (≈ 32.8 µM) | 0.21 µg/mL (≈ 0.551 µM) | 2.8 µg/mL | – | –
13 | Cc1cc(COCCCCCOc2ccc(C3=NCCO3)cc2)on1 [Example 99, 5-{[[5-[4-(4,5-Dihydro-2-oxazolyl)phenoxy]pentyl]oxy]methyl}-3-methylisoxazole] | – | – | – | 0.27 µg/mL (≈ 0.784 µM) | 1.3 µg/mL (≈ 3.77 µM) | 2.3 µg/mL | – | –
14 | Cc1cc(CCCCCOc2ccc(C3=NCCO3)cc2N(C)C)on1 [Example 100, 5-{5-[4-(4,5-Dihydro-2-oxazolyl)-2-(dimethylamino)phenoxy]pentyl}-3-methylisoxazole] | – | – | – | 6.2 µg/mL (≈ 17.3 µM) | 0.76 µg/mL (≈ 2.13 µM) | 99 µg/mL | – | –
15 | CCC(=O)Nc1cc(C2=NCCO2)ccc1OCCCCCc1cc(C)no1 [Example 102, 5-{5-[4-(4,5-Dihydro-2-oxazolyl)-2-(propionylamino)phenoxy]pentyl}-3-methylisoxazole] | – | – | – | 12.5 µg/mL (≈ 32.4 µM) | 12.5 µg/mL (≈ 32.4 µM) | 99 µg/mL | – | –
16 | Cc1cc(CCCCC[S+]([O-])c2ccc(C3=NCCO3)cc2)on1 (stereo not shown) [Example 104, 5-{5-[[4-(4,5-Dihydro-2-oxazolyl)phenyl]sulfinyl]pentyl}-3-methylisoxazole] | – | – | – | 12.5 µg/mL (≈ 36.1 µM) | 9.85 µg/mL (≈ 28.4 µM) | 12.5 µg/mL | – | –
17 | Cc1cc(CCCCCOc2c(Cl)cc(C3=NCC(C)O3)cc2Cl)on1 (stereo not shown) [Example 108, 5-{5-[2,6-Dichloro-4-(4,5-dihydro-5-methyl-2-oxazolyl)phenoxy]pentyl}-3-methylisoxazole] | – | – | – | 2.6 µg/mL (≈ 6.54 µM) | 0.13 µg/mL (≈ 0.327 µM) | 0.34 µg/mL | – | –
18 | Cc1cc(CC/C=C/COc2c(Cl)cc(C3=NCCO3)cc2Cl)on1 [Example 113, 5-{5-[2,6-Dichloro-4-(4,5-dihydro-2-oxazolyl)phenoxy]-3-pentenyl}-3-methylisoxazole (E-isomer)] | – | – | – | 0.4 µg/mL (≈ 1.05 µM) | 0.09 µg/mL (≈ 0.236 µM) | 0.167 µg/mL | – | –

Row | Structure (SMILES) | responders at 100 mg/kg [1] | responders at 200 mg/kg [1] | responders at 400 mg/kg [1] | MIC (Polio 2) | MIC50 [2] | IC (MIC80 of serotype panel) [2] | responders at 50 mg/kg [1] | responders at 25 mg/kg [1]
19 | Cc1cc(CCCCCCCOc2c(Cl)cc(C3=NCCO3)cc2Cl)on1 [Example 114, 5-{7-[2,6-Dichloro-4-(4,5-dihydro-2-oxazolyl)phenoxy]heptyl}-3-methylisoxazole] | – | – | – | 0.48 µg/mL (≈ 1.17 µM) | 0.22 µg/mL (≈ 0.535 µM) | 0.62 µg/mL | – | –
20 | Cc1cc(CCCOc2c(Cl)cc(C3=NCCO3)cc2Cl)on1 [Example 115, 5-{3-[2,6-Dichloro-4-(4,5-dihydro-2-oxazolyl)phenoxy]propyl}-3-methylisoxazole] | – | – | – | 3.1 µg/mL (≈ 8.73 µM) | 0.04 µg/mL (≈ 0.113 µM) | 0.58 µg/mL | – | –
21 | OCc1cc(CCCCCOc2c(Cl)cc(C3=NCCO3)cc2Cl)on1 [Example 116, 5-{5-[2,6-Dichloro-4-(4,5-dihydro-2-oxazolyl)phenoxy]pentyl}-3-isoxazolemethanol] | – | – | – | 3.1 µg/mL (≈ 7.76 µM) | 0.13 µg/mL (≈ 0.326 µM) | 0.5 µg/mL | – | –
22 | COCc1cc(CCCCCOc2c(Cl)cc(C3=NCCO3)cc2Cl)on1 [Example 117, 5-{5-[2,6-Dichloro-4-(4,5-dihydro-2-oxazolyl)phenoxy]pentyl}-3-(methoxymethyl)isoxazole] | – | – | – | 0.39 µg/mL (≈ 0.944 µM) | 0.09 µg/mL (≈ 0.218 µM) | 0.31 µg/mL | – | –
23 | Cc1cc(CCCCCOc2ccc(-c3nc(C)co3)cc2)on1 [Example 133, 5-{5-[4-(4-Methyl-2-oxazolyl)phenoxy]pentyl}-3-methylisoxazole] | – | – | – | 0.09 µg/mL (≈ 0.276 µM) | 0.16 µg/mL (≈ 0.49 µM) | 0.68 µg/mL | – | –
24 | Cc1cc(CCCCCOc2ccc(-c3nc(C)c(C)o3)cc2Cl)on1 [Example 134, 5-{5-[2-Chloro-4-(4,5-dimethyl-2-oxazolyl)phenoxy]pentyl}-3-methylisoxazole] | – | – | – | 1.9 µg/mL (≈ 5.07 µM) | 0.29 µg/mL (≈ 0.774 µM) | 0.5 µg/mL | – | –
25 | Cc1cc(CCCCCCCOc2ccc(-c3nc(C)co3)cc2)on1 [Example 135, 5-{7-[4-(4-Methyl-2-oxazolyl)phenoxy]heptyl}-3-methylisoxazole] | – | – | – | 2.6 µg/mL (≈ 7.34 µM) | 0.335 µg/mL (≈ 0.945 µM) | 0.6 µg/mL | – | –
26 | CN(C)Cc1cc(CCCCCCCOc2ccc(C3=NCCO3)cc2)on1 [Example 136(b), 5-{7-[4-(4,5-Dihydro-2-oxazolyl)phenoxy]heptyl}-3-(dimethylaminomethyl)isoxazole] | – | – | – | 0.62 µg/mL (≈ 1.61 µM) | 0.88 µg/mL (≈ 2.28 µM) | 1.47 µg/mL | – | –
27 | CCN(CC)Cc1cc(CCCCCCCOc2ccc(C3=NCCO3)cc2)on1 [Example 137, 5-{7-[4-(4,5-Dihydro-2-oxazolyl)phenoxy]heptyl}-3-(diethylaminomethyl)isoxazole] | – | – | – | 2 µg/mL (≈ 4.84 µM) | 3.25 µg/mL (≈ 7.87 µM) | 6.2 µg/mL | – | –
28 | C=Cc1cc(C2=NCCO2)ccc1OCCCCCc1cc(C)no1 [Example 141, 5-{5-[2-Ethenyl-4-(4,5-dihydro-2-oxazolyl)phenoxy]pentyl}-3-methylisoxazole] | – | – | – | 0.23 µg/mL (≈ 0.676 µM) | 0.25 µg/mL (≈ 0.734 µM) | 0.54 µg/mL | – | –
29 | Cc1cc(CCCCCCc2ccc(C3=NCCO3)cc2)on1 [Example 142] | – | – | – | 0.37 µg/mL (≈ 1.18 µM) | 0.26 µg/mL (≈ 0.832 µM) | 6.2 µg/mL | – | –
30 | Cc1cc(CCCCCOc2c(C)cc(-c3cocn3)cc2C)on1 [Example 144, 5-{5-[2,6-Dimethyl-4-(4-oxazolyl)phenoxy]pentyl}-3-methylisoxazole] | – | – | – | 12.5 µg/mL (≈ 36.7 µM) | 0.14 µg/mL (≈ 0.411 µM) | 1.1 µg/mL | – | –
31 | Cc1cc(CCCCCOc2ccc(-c3ncc(Cl)o3)cc2)on1 [Example 145, 5-{5-[4-(5-Chloro-2-oxazolyl)phenoxy]pentyl}-3-methylisoxazole] | – | – | – | 0.033 µg/mL (≈ 0.0952 µM) | 0.2 µg/mL (≈ 0.577 µM) | 0.29 µg/mL | – | –
32 | CCOC(=O)c1cc(C2=NCCO2)ccc1OCCCCCc1cc(C)no1 [Example 146, 5-{5-[2-Ethoxycarbonyl-4-(4,5-dihydro-2-oxazolyl)phenoxy]pentyl}-3-methylisoxazole] | – | – | – | 4.2 µg/mL (≈ 10.9 µM) | 0.29 µg/mL (≈ 0.75 µM) | 0.55 µg/mL | – | –
33 | Cc1cc(CCCCCOc2ccc(C3=NCCO3)cc2C=CBr)on1 [Example 147, 5-{5-[2-(2-Bromoethenyl)-4-(4,5-dihydro-2-oxazolyl)phenoxy]pentyl}-3-methylisoxazole] | – | – | – | 0.4 µg/mL (≈ 0.954 µM) | 0.23 µg/mL (≈ 0.549 µM) | 0.76 µg/mL | – | –
34 | COC(=O)CCC(=O)OCc1cc(CCCCCOc2c(Cl)cc(C3=NCCO3)cc2Cl)on1 [Example 148, 5-{5-[2,6-Dichloro-4-(4,5-dihydro-2-oxazolyl)phenoxy]pentyl}-3-isoxazolylmethyl methyl butanedioate] | – | – | – | 8.5 µg/mL (≈ 16.6 µM) | 0.17 µg/mL (≈ 0.331 µM) | 0.45 µg/mL | – | –
35 | Cc1cc(CCC#CCOc2c(Cl)cc(C3=NCCO3)cc2Cl)on1 [Example 151, 5-{5-[2,6-Dichloro-4-(4,5-dihydro-2-oxazolyl)phenoxy]-3-pentynyl}-3-methylisoxazole] | – | – | – | 0.4 µg/mL (≈ 1.05 µM) | 0.2 µg/mL (≈ 0.527 µM) | 1.2 µg/mL | – | –

From patent US4843087A (priority 1986, dated 1989)
